Entries after “also recorded” stand apart in the source; their conditions may differ.
Key:
[1] = system: zebrafish embryos; assay: Liver size in zebrafish embryos (lfabp in situ hybridization, lfabp:GFP); format: in vivo; settings: for liver size: other NO donors at optimal doses, alternative NOS inhibitor, inactive enantiomer, dose series; for liver size (in situ hybridization for lfabp and transferrin): 10 μM, exposure 24-72 hpf
Method: In order to identify regulators of liver formation a chemical genetic screen was conducted. Several of the chemicals identified by the screen were known to impact on NO signaling. Based on these initial observations, well-established modulators of NO signaling were secondarily screened for effects on liver formation. […] The contrasting effects of L-Arg and L-NAME on liver formation were confirmed by in vivo fluorescent microscopy of lfabp:GFP transgenic zebrafish. To quantify the phenotypic changes caused by NO signaling, the liver size (region of lfabp expression) of treated embryos were scored as large, medium or small. […]
To further characterize the role of NO signaling on liver formation, we studied the temporal requirements for NO signaling. Embryos were exposed to Deta (10 μM), L-Arg (10 μM) or L-NAME (10 μM) from 24-48 or 48-72 hpf at which point liver size was assessed. […] Exposure of embryos to L-Arg (10 μM) caused a subtle yet significant increase in the hepatic bud size at 36 hpf (region of hhex expression) in 26% of embryos, whereas L-NAME diminished hepatic bud size in 33% of embryos. […]

[2] = system: lfabp:GFP embryos; assay: APAP-induced liver injury in zebrafish larvae, sub-lethal dose (liver size, BrdU); format: in vivo; settings: for liver size: APAP 5 mM 48-60 hpf, treatment in recovery phase 60-96 hpf, L-NAME 10 μM, NAC 10 μM, GSNORi 1 μM; for liver size and survival after APAP exposure: summary, embryos and adults, co-exposure; for liver size / hepatoprotection: co-exposure model: APAP 5 mM concurrently with treatment 48-96 hpf, Deta 5 μM
Method: In order to examine the possible hepatoprotective effect of GSNORi in the context of acetaminophen (APAP) induced liver injury. Transgenic lfabp:GFP embryos were exposed to a sub-lethal dose of APAP (5 mM) from 48 to 60 hpf followed by treatment during the recovery phase (60-96 hpf) with L-NAME, GSNORi and/or NAC. […] In order to further investigate the proliferative effect of treatments following APAP induced liver injury, we examined BrdU incorporation during the recovery phase.

[3] = system: adult zebrafish; assay: APAP-induced liver injury in adult zebrafish; format: in vivo; settings: for hepatic glutathione (GSH) / liver histology / overall survival compared to APAP alone: APAP 10 mM; for hepatic glutathione (GSH) / liver histology: GSNORi 1 μM and/or NAC 10 μM; for overall survival compared to APAP alone: adults, Deta 5 μM, GSNO 5 μM
Method: Having shown that GSNORi was hepatoprotective in APAP exposed larvae, we wanted to examine whether GSNORi remained effective in adult zebrafish. To visualise the hepatoprotective properties of GSNORi in vivo, adult casper lfabp:GFP transgenic fish were exposed to APAP (10 mM) in the presence or absence of GSNORi (1 μM) for 24 hr and examined 72 hpe by fluorescence microscopy. […] To gain a greater understanding of the hepatoprotective potential of GSNORi, survival studies were conducted in which adults were exposed to APAP (10 mM) in the presence or absence of GSNORi (1 μM) for 24 hr, followed by a 2-day recovery period in fresh water. […] The differences in survival were reflected in circulating ALT levels, which are used clinically to assess liver toxicity; peaking at 24 hpe with 196 U/L in APAP (10 mM) exposed fish and 55 U/L for fish exposed to APAP with GSNORi (1 μM).
Given that treatments for APAP-induced liver injury are provided after a considerable delay in the clinical setting, we wanted to determine whether GSNORi would remain hepatoprotective when treatment was delayed. In addition, we wanted to ascertain whether GSNORi could synergize with the clinical antidote NAC and extend the therapeutic window.

[4] = system: zebrafish embryos; assay: Survival of zebrafish embryos exposed to a lethal dose of APAP; format: in vivo; settings: for survival: GSNORi 1 μM, NAC 10 μM; for survival compared to APAP alone: co-exposure 5 μM
Method: Having found a hepatoprotective effect of GSNORi in embryos exposed to a sublethal dose of APAP, we next examined whether GSNORi was able to enhance survival in embryos exposed to a lethal dose of APAP (10 mM).

[5] = system: zebrafish embryos; assay: Hepatic bud size in zebrafish embryos (hhex, foxA3, sid4 expression); format: in vivo
Method: To further characterize the role of NO signaling on liver formation, we studied the temporal requirements for NO signaling. Embryos were exposed to Deta (10 μM), L-Arg (10 μM) or L-NAME (10 μM) from 24-48 or 48-72 hpf at which point liver size was assessed. […] Exposure of embryos to L-Arg (10 μM) caused a subtle yet significant increase in the hepatic bud size at 36 hpf (region of hhex expression) in 26% of embryos, whereas L-NAME diminished hepatic bud size in 33% of embryos.
The expression pattern of an alternate hepatic progenitor marker prox1 corroborated that chemical modulators of NO signaling alter the size of the developing hepatic bud. […] These findings were verified by qPCR for hhex and foxA3.

[6] = system: zebrafish embryos; assay: Chemical genetic screen for effects on liver development in zebrafish embryos; format: in vivo; settings: lfabp:GFP fluorescence and lfabp in situ hybridization at 72 hpf
Method: The liver arises from anterior endodermal progenitor cells. Liver development can be divided into three stages, specification (18-24 hours post fertilization, hpf), budding/differentiation (24-72 hpf), and hepatic outgrowth (72-96 hpf). The various stages of liver development can be observed in the embryo by in situ hybridization for hhex (endodermal progenitors), foxA3 (differentiated endoderm) and liver fatty acid binding protein (lfabp, marker of hepatocytes).
In an effort to identify novel regulators of liver formation and homeostasis, a library of 2880 biologically active compounds (obtained from the ICCB at Harvard Medical School) was previously screened for global effects on liver development in zebrafish. Hepatogenesis was assessed in vivo using fluorescent reporter fish where the hepatocyte-specific lfabp promoter drives GFP expression. All embryos were imaged with fluorescence microscopy at 72 hpf, then fixed and subjected to in situ hybridization for lfabp to confirm the in vivo findings. Of the chemical treatments, 191 compounds (6.6%) increased, and 344 (11%) decreased liver formation.

[7] = system: zebrafish embryos; assay: Effect on organs other than the liver in zebrafish embryos (in situ hybridization); format: in vivo; settings: 10 μM, 18 hpf until 72 hpf
Method: These findings were corroborated by qPCR for lfabp.
In order to examine the effect that NO signaling had on other endodermal organs including the pancreas and gut, embryos were exposed to Deta (10 μM) or L-NAME (10 μM) from 18 hpf until 72 hpf. Endodermal derived tissue, the exocrine pancreas and gut were stained by in situ hybridization for foxa3, trypsin and ifabp, respectively.

[8] = system: cloche embryos; assay: Liver size in cloche mutant embryos lacking vasculature; format: in vivo, zebrafish; settings: for liver size in cloche embryos: summary statement
From the text: NO signaling can occur via 2 distinct mechanisms namely, cGMP-dependent vasodilation and S-nitrosylation pathways. In order to clarify the importance of the well-known vascular effects of NO, we examined the effect of chemical modulators of NO signaling in cloche mutants that have no endothelial cells and therefore lack any vasculature.

[9] = system: zebrafish embryos; assay: Hepatic progenitor proliferation in zebrafish embryos (BrdU incorporation, pH3 staining); format: in vivo; settings: for BrdU incorporation (BrdU positive cells): developing hepatic bud; for staining for the mitotic marker pH3: treated embryos
[10] = system: lfabp:GFP embryos; assay: Flow cytometric analysis of GFP+ hepatocytes in lfabp:GFP embryos; settings: GFP+ cells, compared to control
From the text: S-nitrosoglutathione reductase (GSNOR) is the major enzyme responsible for metabolizing S-nitrosothiols and is therefore a key negative regulator of S-nitrosylation pathways. We reasoned that by inhibiting GSNOR function we could stimulate S-nitrosothiol signaling and modulate liver formation.

[11] = system: Zebrafish; assay: Liver regeneration after 1/3 partial hepatectomy in zebrafish; format: in vivo; settings: 10 μM
From the text: In order to determine whether the hepatoprotective and pro-regenerative effect of GSNOR inhibition was limited to APAP-induced liver injury, we determined the impact of exposure to GSNORi after ⅓ partial hepatectomy.

[12] = system: NO production; assay: NO production in vivo with fluorescent probe Cu(2)(FL2E); design: species or system zebrafish; settings: cell-trappable fluorescent probe Cu(2)(FL2E)
[13] = system: WT mice; assay: APAP-induced liver injury in WT mice treated with GSNORi and/or NAC; format: in vivo; settings: APAP 300 mg/kg, treatment 2 hrs later, GSNORi 5 mg/kg, NAC 300 mg/kg
Method: To investigate this possibility, WT mice were injected with a sub-lethal dose of APAP (300 mg/kg) followed 2 hrs later by treatment with GSNORi (5 mg/kg) and/or NAC (300 mg/kg). Mice were sacrificed at 6 or 24 hr.

[14] = APAP 10 mM for 18 hr followed by delayed treatment, GSNORi 1 μM, NAC 10 μM
[15] = APAP 10 mM 48-96 hpf, co-exposure

Compound: CC(=O)NC(C(=O)O)C(C)(C)SN=O (racemic) [SNAP, S-Nitroso-N-Acetyl-D,L-Penicillamine]
- liver size [1]: increase liver size

Compound: CC(=O)Nc1ccc(O)cc1 [APAP, N-acetyl-p-aminophenol]
- liver size [2]: dramatic decrease in liver size
- liver size and survival after APAP exposure [2]: decrease in liver size and death
- circulating ALT ([3]; 24 hpe, APAP 10 mM ± GSNORi 1 μM): 196 U/L
- survival by 72 hpe [3, 14]: 57%
- survival by 72 hpe ([3]; APAP 10 mM ± GSNORi 1 μM for 24 hr, 2-day recovery in fresh water): 39%
- hepatic glutathione (GSH) [3]: dramatic reduction in hepatic glutathione (GSH)
- liver histology [3]: hepatocyte necrosis and hemorrhaging
- GFP fluorescence (fluorescence microscopy) ([3]; adult casper lfabp:GFP fish, APAP 10 mM ± GSNORi 1 μM for 24 hr, examined 72 hpe): reduction in GFP fluorescence
- survival [4, 15]: 4%

Compound: N=C(N)NCCC[C@@H](N)C(=O)O [D-Arg, D-Arginine]
- liver size [1]: no effect on liver size

Compound: NCCN(CCN)/[N+]([O-])=N/O [Deta, Diethylenetriamine-NONOate]
- liver size / hepatoprotection [2]: protected the liver
- region of hhex and foxA3 expression in the developing hepatic bud ([5]; 10 μM): increasing the region of hhex and foxA3 expression
- liver size [1]: increase liver size
- overall survival compared to APAP alone [3]: enhanced overall survival
- liver size [6]: increase in liver size
- size of other endodermal organs (foxa3, trypsin, ifabp) [7]: did not observably affect the size of other endodermal organs
- survival compared to APAP alone ([4]; APAP 10 mM): increased survival

Compound: N[C@@H](CCC(=O)N[C@@H](CSN=O)C(=O)NCC(=O)O)C(=O)O [GSNO, S-nitrosoglutathione]
- embryos with increased liver size ([8]; cloche mutants, GSNO 5 μM): 46%
- liver size in cloche embryos [8]: able to modulate liver size
- embryos with enhanced liver size ([1]; GSNO 5 μM): 40%
- overall survival compared to APAP alone [3]: enhanced overall survival
- survival compared to APAP alone ([4]; APAP 10 mM): increased survival

Compound: N=C(N)NCCC[C@H](N)C(=O)O [L-Arg, L-Arginine]
- embryos with increased liver size ([8]; cloche mutants, L-Arg 10 μM): 37%
- embryos with increase in hepatic bud size (region of hhex expression) ([5]; L-Arg 10 μM, 36 hpf): 26%
- embryos with increased hepatic bud size (foxA3 expression) ([5]; L-Arg, 48 hpf): 51%
- liver size (in situ hybridization for lfabp and transferrin) [1]: dramatic increase in liver size
- embryos with a large liver ([1]; L-Arg 10 μM, 24-72 hpf, liver size scored large, medium or small): approximately 51%
- BrdU incorporation (BrdU positive cells) [9]: increase in BrdU positive cells
- staining for the mitotic marker pH3 [9]: increased hepatic proliferation
- liver size [6]: increase in liver size
- hepatocytes per embryo [10]: increase in hepatocytes per embryo

Compound: COC(=O)[C@@H](N)CCCNC(=N)N[N+](=O)[O-] [L-NAME, L-N^G-Nitroarginine methyl ester]
- embryos with a small liver ([8]; cloche mutants, L-NAME 10 μM): 40%
- liver size in cloche embryos [8]: able to modulate liver size
- liver size [2]: exacerbated
- liver size / hepatoprotection [2]: exacerbated injury
- liver size and survival after APAP exposure [2]: further decrease in liver size and more extensive loss in survival
- embryos with diminished hepatic bud size (hhex) ([5]; L-NAME, 36 hpf): 33%
- embryos with restricted hepatic bud size (foxA3 expression) ([5]; L-NAME, 48 hpf): 60%
- liver size (in situ hybridization for lfabp and transferrin) [1]: decrease in liver size
- embryos with diminished liver size ([1]; L-NAME 10 μM, 24-72 hpf): 62%
- overall survival compared to APAP alone [3]: exacerbated the loss in survival
- BrdU incorporation (BrdU positive cells) [9]: reduced the number of BrdU positive cells
- staining for the mitotic marker pH3 [9]: inhibited cell cycle progression
- liver size [6]: smaller livers; also recorded: small liver
- size of other endodermal organs (foxa3, trypsin, ifabp) [7]: did not observably affect the size of other endodermal organs
- regenerative activity [11]: complete cessation of regenerative activity
- hepatocytes per embryo [10]: decrease
- NO in the developing endoderm [12]: inhibited

Compound: CC(=O)N[C@@H](CS)C(=O)O [NAC, N-acetylcysteine]
- circulating ALT, % of the level of APAP alone [13]: 43%
- histological evaluation of centrilobular necrosis ([13]; 6 and 24 hr): effective in preventing liver necrosis
- survival by 72 hpe [3, 14]: 80%
- hepatic glutathione (GSH) [3]: modulated
- liver histology [3]: alleviated
- cell proliferation (PCNA immunohistochemistry) ([3]; following APAP injury): modulated liver regeneration
- survival [4, 15]: 32%
- survival ([4]; APAP 10 mM, treatment given after a 12 hr delay): 15%

Compound: NG-amino-L-Arginine [L-NMMA]
- liver size [1]: decrease liver size in a dose-dependent manner

— patent US20140135396A1, “Treatment of Acetaminophen-Induced Liver Damage by the Administration of Modulators of Nitric Oxide” (BETH ISRAEL DEACONESS MEDICAL CENTER, INC., priority 2011, published 2014)
